Tests used:
3A-SubE cells = assay: Viability of 3A-SubE post crisis placenta cells (MTT assay); format: cell-based; settings: 50 μM 48 hours, then 96 hours without CCDTHT
choline transport = assay: [14C]choline uptake and metabolism in AN3CA, MCF-7 and MEL-28 cancer cells; format: cell-based, human; settings: 100 μM CCDTHT or 0.5 mM HC-3, 2 hours, each cell line
Method: MEL-28 and MCF-7 cells were cultured in MEM medium supplemented with 10% fetal bovine serum (FBS) and in DMEM medium supplemented with 10% FBS, respectively. The AN3CA human endometrial adenocarcinoma cells were maintained in Eagle's MEM containing 10% FBS. Cancer cells were grown up to confluency in 12-well plates in 10% fetal-bovine serum-containing medium, then incubated in the presence of 1 μCi of [methyl-^14C]choline (bought from Amersham; Piscataway, N.J.) for 2 hours. Cells were first rapidly (within 30 seconds) washed three times with 4 ml of serum-free medium, then extracted with ice-cold methanol. This was followed by the determination of cellular free radiolabeled choline and phosphocholine (PCho) by column chromatography as described earlier [Kiss, Z. and Crilly, K. S. (1995), “Tamoxifen inhibits uptake and metabolism of ethanolamine and choline in multidrug-resistant, but not in drug-sensitive, MCF-7 human breast carcinoma cells,” FEBS Lett. 360, 165-168], and the separation and determination of radiolabeled phosphatidylcholine (PtdCho) by thin layer chromatography as indicated in Kiss [Kiss, Z. (1996), “Direct proof that phorbol ester accelerates the use of choline phosphate for phosphatidylcholine synthesis in intact cells,” Arch. Biochem. Biophys. 335, 191-196].
MCF-7 and MEL-28 cells were cultured as described earlier. The AN3CA human endometrial adenocarcinoma cells were maintained in Eagle's MEM containing 10% FBS. Each cell type was grown in 12-well plates to confluency and then incubated with 1 μCi of [methyl-^14C]choline for 2 hours in the absence (□) or presence of 100 μM CCDTHT ? or 0.5 mM HC-3 (▪), followed by the determination of cellular contents of radiolabeled choline (A), PCho (B) and PtdCho (C), as indicated in FIG. 9. […] Thus, if both CCDTHT and HC-3 influenced cell viability solely via inhibition of choline metabolism, then these agents should similarly affect cell viability, at least at the concentrations used in the choline transport experiment.

[1] = Toxicological studies in mice; format: in vivo, mouse
Method: Accordingly, a well-tolerated dose for CCDTHT in mice is 450 μmole/animal (weighing about 25 g) which corresponds to a dose of 4.6 mg/kg. Therapeutically effective concentrations in humans will exert maximal inhibitory effects on the growth of non-healthy tissues without causing significant toxicity in normal healthy tissues.
Parallel toxicological studies also have been performed with 200-500 μmole/animal doses of the commercially available CCompound1. […] CCompound26, which may have an even better toxicity profile based on in vitro experiments with normal cells, was synthesized much later and has not yet been tested in animal experiments.

[2] = tested on: human leukemia xenografts (HL-60); assay: HL-60 human leukemia xenograft model: tumor volume and survival; format: in vivo, mouse
Text: Tumors were developed in first generation hybrid BDF1 (C57 B1 female×DBA/2 male) adult female mice kept at specified pathogen free (SPF) hygienic level. Suspensions of HL-60 human leukemia cells, or approximately 0.1 cm^3 volume of tumor tissue derived from HT-168 human melanoma, PC-3 human prostate adenocarcinoma, T47D human breast carcinoma, MXT mouse mammary cancer, or mouse B16 melanoma cells were implanted subcutaneously to develop the tumors. After 12-18 days when the tumor-bearing mice were first treated, the size of the tumors was in the 0.2-0.4 cm^3 range. All compounds used were dissolved in physiological (0.9%) saline (NaCl), and the agents, alone or in combinations, were applied subcutaneously or intraperitoneally in 50 μl volume. Tumor volume was determined by calipers in three dimensions; this technique is well known to one having ordinary skill in the art. Tumor volume was calculated according to the generally accepted formula: V=a^2×b×π/6, where “a” and “b” mean the shortest and longest diameter, respectively, of the measured tumor.
The HL-60 human leukemia model was developed and treated as described above. On day 12 the mice either remained untreated (Group 1) or were treated with 4.6 mg/kg CCDTHT (Group 2) or 4.6 mg/kg CCDTHT+15 mg/kg highly purified PALP (Group 3). Both CCDTHT and PALP were administered subcutaneously for three 5-day cycles with 2 resting days included between each 5-day cycle. In each group 7 mice were included.

[3] = Body weight of animals in the MXT tumor model; format: in vivo, mouse; settings: Example 31, CisPt 2 mg/kg i.p. and/or CCDTHT 4.6 mg/kg s.c.
Method: The mouse mammary MXT tumor was developed as described above. […] CCDTHT and CisPt were administered subcutaneously and intraperitoneally, respectively, once daily for 10 days, including a 2-day rest period after 5 days of treatment (i.e., the last treatment was on day 19). Each group consisted of 7 animals, and the mean values±std. dev. for tumor volumes and body weight are shown in TABLE 4 and TABLE 5, respectively.
The mouse mammary MXT tumor model was developed and treated as described above. […] CisPt and PALP were administered intraperitoneally and subcutaneously, respectively, seven times on every second day (i.e., treatments were terminated on day 21). Each group included 7 animals; the mean values±std. dev. for tumor volumes and body weight are shown in TABLE 6 and TABLE 7, respectively.
The mouse mammary MXT tumor model was developed and treated as described above. […] In each group 7 mice were included. The mean values±std. dev. for tumor volumes and body weights are shown in TABLE 9 and TABLE 10, respectively.

[4] = CCDTHT 4.6 mg/kg s.c. without or with PALP 15 mg/kg s.c., 5-day cycles

CC[N+](C)(CC)CCOCc1ccc2sc3ccccc3c(=O)c2c1.[I-] [CCDTHT, N,N-diethyl-N-methyl-2-[(9-oxo-9H-thioxanthen-2-yl)methoxy]-ethanaminium iodide]
reversibility: proliferation in fresh medium after treatment, 3A-SubE (3A-SubE cells): not sufficient to suppress proliferation | inhibitory effects on choline uptake and metabolism (choline, PCho, PtdCho) (choline transport): comparably strong inhibitory effects | death of animals by day 30 ([1]; 900 μmole (about 9.2 mg/kg)): 40% | tissue alterations ([1]; 900 μmole (about 9.2 mg/kg)): mild parenchymal degeneration in the heart, focal hypostasis and chronic bronchopneumonia in the lung, and multifocal degeneration of hepatocytes in the liver | change in the composition of various blood constituents ([1]; single 450 μmole (about 4.6 mg/kg) or 400 μmole daily for 5 consecutive days): did not cause any significant change | pathological alterations in liver, brain, kidney, heart, spleen, intestine and lung ([1]; single 450 μmole or 400 μmole daily for 5 consecutive days): did not induce significant pathological alterations | Tumor volume, Day 16 [2, 4]: 1.26 ± 0.73 cm^3 | Tumor volume, Day 22 [2, 4]: 2.74 ± 0.37 cm^3 | Tumor volume, Day 26 [2, 4]: 3.72 ± 0.44 cm^3 | Tumor volume, Day 12 ([2]; CCDTHT 4.6 mg/kg s.c. without or with PALP 15 mg/kg s.c., start of treatment): 0.46 ± 0.32 cm^3 | survival of leukemic mice ([2]; CCDTHT 4.6 mg/kg without or with PALP 15 mg/kg): 34.9 ± 6.6 days | Body weight, Day 14 ([3]; once daily): 25.1 ± 0.84 g | Body weight, Day 18 ([3]; once daily): 26.9 ± 0.93 g | Body weight, Day 21 ([3]; once daily): 28.8 ± 0.91 g | Body weight, Day 7 ([3]; start of treatment): 22.8 ± 0.82 g
